The source of these data is patent US20060141047A1, “Methods and compositions for delivery of catecholic butanes for treatment of obesity” (priority 2003, published 2006).

Like-named read-outs stand apart in the source and are kept apart here.

Data set [1] can be described thus: Tissue distribution of 3H-M4N after a single intraperitoneal or intravenous injection. As to conditions: 3 hours post-injection, i.p. or i.v. It counts as in vivo, mice. The protocol:
M4N Tissue Distribution Studies Using 3H—M4N. […] The insoluble pellet was then further extracted with EtOH.
A mixture of tritiated and cold M4N was dissolved in a 6% Cremaphor EL, 6% ethanol, 88% saline solvent then injected intraperitoneally (i.p.) and intravenously (i.v.) via tail vein into mice. At 3 hours post-injection, the organs and blood were harvested and weighed, and the M4N was extracted. […] M4N was successfully distributed to various organs at 3 hours post-injection by both i.p. and i.v. routes of administration. […] Corroborating this, a very similar profile of distribution was observed using an oral route of administration described below. The majority of the recovered radioactivity localized to the gastrointestinal tract organs: the stomach, small intestine, caecum, and large intestine, in the range of 3 μg to 20 μg of M4N per gram of tissue.

The conditions of data set [2]: mouse, in vivo, ip.
Description: M4N Tissue Distribution Studies Using 3H—M4N. Harlan ICR mice or C3 cell-induced tumor-bearing C57bl/6 mice were injected via tail vein or intraperitoneally with 100 μL of Cremaphor-ethanol based solvent containing 100 μCi of tritiated M4N and 60 mM of cold M4N. At the specified time post-injection, the mice were sacrificed, the organs and blood were collected, weighed, then dissolved overnight in 4 M guanidine isothiocyanate (GITC). The insoluble pellet was then further extracted with EtOH. Tritium content of both the GITC extract and the EtOH extract was measured on a Packard scintillation counter and the quantity of M4N in each organ was calculated based on the specific activity of the inoculum.
To determine the distribution of M4N in tissues over time following a single application, and also to assess the ability to deliver M4N to a distant tumor, six C3 cell-induced tumor bearing mice (A-F) were treated i.p. with ^3H— M4N as described above. At 4 hours, 6 hours, 18 hours, and 6 days post-injection, the quantities of ^3H— M4N in various tissues and the tumors were measured.
In the next data set the test system is fat tissues. Nature of the data set: Incubation of isolated fat tissue with CREM solvent plus M4N, fat weight. Details: species or system mice. On the procedure:
While no definite conclusions can be made regarding most organs due to the small size of the populations tested, a decrease in adipocyte (fat cells) weight was nevertheless significant (0.84 g vs. 0.196 g) following a 20 week feeding with a fat-rich diet containing M4N. In particular, fat tissues from two control mice (C24 and C25) which were fed a fat-rich diet without M4N were isolated and incubated with CREM solvent or with CREM solvent plus M4N for a total period of 6 days (first extract 72 hours and second extract for an additional 72 hours). The fat cell weights were measured at 0 time, the third day and the sixth day following incubation in CREM solvent and without M4N.

The conditions of data set [3]: dogs. On the procedure:
In this example the Maximal Tolerable Dose (MTD) of two different formulations of M4N [Cremaphor-Ethanol (CET) or Dimethyl Sulfoxide (DMSO)] to male and female Beagle Dogs was determined.
Dogs were treated prophylactically with an analgesic and antibiotic on the day of surgery and with antibiotics and/or analgesics following surgery (according to Gene Logic Inc. SOP Nos. 324.0.2, 325.0.1, and 326.0.2, as appropriate.) Other treatments were provided as recommended by the staff veterinarian. The catheter lines were flushed with saline during the postoperative recovery period with a frequency deemed appropriate by the Study Director.
Thus the M4N-DMSO group animals were administered with M4N-DMSO with eight intravenous injections via the non-VAP jugular vein every 30 minutes over a 4-hour period. This frequency of delivery mimicked the delivery of the test article using the infusion pump.
Animals from the CET group were observed during the entire infusion period and for at least one hour following end of infusion. The dogs in the DMSO group were observed throughout the jugular vein injection period and for at least one hour following the last (eighth) injection.

Data set [4] relates to HPV-16 transformed immortal mouse epithelial cells (C3). As to conditions: intratumor injection, separately or together, U.S. Pat. No. 6,417,234 and 6,214,874; cited from earlier work.
Data set [5] can be described thus: Short-term oral feeding, M4N tissue levels by HPLC. It counts as in vivo, mice. On the procedure: Tissue Distribution and Toxicity Analysis Following Short-Term and Long-Term Oral Feeding. For short-term feeding experiments, 30 mg of M4N dissolved in 300 μL castor oil was orally administered to each of 6 mice. At 2 h, 4 h, and 8 h post-administration time points, 2 mice were sacrificed, the organs and blood were collected, and the M4N extracted and quantitated as described below. In long-term feeding experiments, mice were fed food balls consisting of M4N dissolved in corn oil and Basal Mix (Harlan Teklad; Madison, Wis.; Cat. # TD 02273) for 14 weeks. Food balls weighed 9 g and contained 242 mg M4N each. Two mice, one male and one female, were reserved for long-term drug retention studies; and fourteen mice, both male and female, were used for long-term drug toxicity studies. At the end of feeding, mice were sacrificed, the organs and blood were collected, and the M4N extracted and quantitated as described below.
M4N Extraction and HPLC Analysis Following Oral Feeding. […] The dried samples were then analyzed quantitatively by HPLC and M4N was identified by mass spectroscopy using pure M4N as a standard.
In samples from short-term fed mice, dialysis was performed to further purify M4N from the tissue extracts. […] The dialysates were dried on benchtop and in a speed-vac, then analyzed by HPLC.
HPLC Quantitation of M4N. […]

As for `COc1ccc(C[C@@H](C)[C@@H](C)Cc2ccc(OC)c(OC)c2)cc1OC` [M4N, meso-1,4-bis(3,4-dimethoxyphenyl)-2,3-dimethylbutane], in data set [1], the “M4N detected in heart or blood” value is on record as “Little or no M4N”; the “M4N present in liver and fat” value is reported as “Significant quantities”. Besides, in data set [2], the “M4N in the tumor” value is 294 ng M4N per gram of wet tumor, the “M4N tissue levels at 6 days post-injection relative to levels at 6 hours” value is reported as 5-10% and the “Time of peak M4N tissue levels” value was “approximately 6 hours”. Further, the “Fat Weight After First Extraction” value in the data set with fat tissues (fat tissue of mouse C25, 72 hours in CREM solvent + 21.4 mg M4N) came out at 0.481 g. The “Fat Weight After Second Extraction” value in the data set with fat tissues (fat tissue of mouse C25, additional 72 hours (6 days total) in CREM solvent + M4N) is 0.059 g. In data set [3] (CET vehicle), the “Dose safely administered by intravenous infusion over four hours” value is on record as “up to 10 mg/kg”. Besides, in data set [3] (DMSO vehicle), the “Dose safely administered by intravenous infusion over four hours” value is given as “up to 100 mg/kg”. In addition, the “Suppression of tumor growth” value in data set [4] was “some evidence of suppression of tumor growth”. For the same compound, the “M4N in each tissue” value in data set [5] (2 hours post-feeding, 30 mg M4N in castor oil, oral) is less than 2 ng per gram tissue. The “Time of peak M4N levels” value in data set [5] (post-feeding, single oral 30 mg M4N) is reported as “roughly 4 hours”.
